Measurements from patent US20240294541A1, “COMPOUNDS CONSTITUTING C20-MODIFIED SALINOMYCIN DERIVATIVES, A METHOD FOR OBTAINING THE SAME, A COMPOSITION CONTAINING THE SAME AND A USE OF SAID COMPOUNDS” (FILECLO SPOLKA Z OGRANICZONA ODPOWIEDZIALNOSCIA, priority 2021, published 2024).
Like-named read-outs stand apart in the source and are kept apart here.

Legend:
Type in all cases: cell-based
Hs294T (human melanoma) = assay: cells; conditions: for IC50: Hs 294T; for Hs294T SI: selectivity coefficient vs normal BALB/3T3 cells
[1] = test system: KG-1 (human acute myeloid leukaemia); assay: In vitro cytotoxicity, MTT assay, KG-1; conditions: for IC50: Homo sapiens, 72 h with compound, MTT, n/a = non-active compound; for KG-1 SI: selectivity coefficient vs normal BALB/3T3 cells
[2] = test system: SNU-16 (human gastric cancer); assay: cells; conditions: for SNU-16 SI: selectivity coefficient vs normal BALB/3T3 cells
[3] = test system: A2780 (human ovarian cancer); assay: In vitro cytotoxicity, SRB assay, A2780; conditions: for IC50: Homo sapiens; for A2780 SI: selectivity coefficient vs normal BALB/3T3 cells
[4] = test system: MIA PaCa-2 (human pancreatic cancer); assay: cells; conditions: for MIA PaCa-2 SI: selectivity coefficient vs normal BALB/3T3 cells
[5] = test system: A2780Cis (cisplatin-resistant human ovarian cancer); assay: In vitro cytotoxicity, SRB assay, A2780Cis; conditions: for IC50: Homo sapiens, A2780cis, 72 h, read-out: A2780Cis IC50 (nM)
[6] = test system: BALB/3T3 (normal mouse fibroblasts); assay: In vitro cytotoxicity, SRB assay, normal BALB/3T3 fibroblasts; conditions: Mus musculus, BALB/3T3; normal cells; 72 h with compound, SRB; n/a = non-active compound; read-out: BALB/3T3 IC50
[7] = test system: PFSK-1 (malignant primitive neuroectodermal tumour); assay: In vitro cytotoxicity, SRB assay, PFSK-1; conditions: for IC50: Homo sapiens; for PFSK-1 SI: selectivity coefficient vs normal BALB/3T3 cells
[8] = test system: PLC/PRF/5 (human liver cancer); assay: cells; conditions: for PLC/PRF/5 SI: selectivity coefficient vs normal BALB/3T3 cells
[9] = test system: NCI-H23 (human lung cancer); assay: In vitro cytotoxicity, SRB assay, NCI-H23; conditions: for IC50: Homo sapiens; for NCI-H23 SI: selectivity coefficient vs normal BALB/3T3 cells
A375 (human melanoma) = assay: In vitro cytotoxicity, SRB assay, A375; conditions: for IC50: Homo sapiens; for A375 SI: selectivity coefficient vs normal BALB/3T3 cells
[10] = test system: NCI-H358 (human lung cancer); assay: cells; conditions: Table 4; NCI-H358 human lung cancer cells; read-out: IC50 (nM) NCI-H358
[11] = Homo sapiens, 72 h with compound, SRB, n/a = non-active compound, read-out: Hs294T IC50
[12] = Homo sapiens, SNU-16, 72 h with compound, MTT, n/a = non-active compound, read-out: SNU-16 IC50
[13] = A2780, 72 h, read-out: A2780 IC50 (nM)
[14] = Homo sapiens, MIA PaCa-2, 72 h with compound, SRB, n/a = non-active compound, read-out: MIA PaCa-2 IC50
[15] = PFSK-1, 72 h, read-out: PFSK-1 IC50 (nM)
[16] = Homo sapiens, PLC-PRF-5, 72 h with compound, SRB, n/a = non-active compound, read-out: PLC/PRF/5 IC50
[17] = NCI-H23, 72 h, read-out: NCI-H23 IC50 (nM)
[18] = A-375, 72 h, read-out: A375 IC50 (nM)
[19] = A2780, 72 h with compound, SRB, n/a = non-active compound, read-out: A2780 IC50
[20] = PFSK-1, 72 h with compound, SRB, n/a = non-active compound, read-out: PFSK-1 IC50
[21] = NCI-H23, 72 h with compound, SRB, n/a = non-active compound, read-out: NCI-H23 IC50
[22] = A-375, 72 h with compound, SRB, n/a = non-active compound, read-out: A375 IC50

Row | SMILES | IC50 (Hs294T (human melanoma); [11]) [nM] | Hs294T SI (Hs294T (human melanoma)) | IC50 [1] [nM] | KG-1 SI [1] | IC50 [2, 12] [nM] | SNU-16 SI [2] | A2780 SI [3] | IC50 [4, 14] [nM] | MIA PaCa-2 SI [4] | A2780Cis RI [5] | A2780Cis SI [5] | IC50 [5] [nM] | IC50 [6] [nM] | PFSK-1 SI [7] | IC50 [8, 16] [nM] | PLC/PRF/5 SI [8] | NCI-H23 SI [9] | A375 SI (A375 (human melanoma)) | IC50 [3, 19] [nM] | IC50 [7, 20] [nM] | also measured
1 | CC[C@@H](C(=O)[C@@H](C)[C@@H](O)[C@H](C)[C@@H]1O[C@@H]([C@@H](CC)C(=O)O)CC[C@@H]1C)[C@H]1O[C@]2(C=C[C@@H](NC(=S)Nc3ccc(Cl)c(Cl)c3)[C@]3(CC[C@@](C)([C@H]4CC[C@](O)(CC)[C@H](C)O4)O3)O2)[C@H](C)C[C@@H]1C [FLC-00379-1] | 108 | 0.9 | 39 | 2.5 | 18 | 5.5 | 22.8 | 52.6 | 1.9 | 0.2 | 121.2 | 0.81 | 98.2 | 14.9 | 22.1 | 4.5 | 11.0 | 1.4 | – | – | IC50 [3, 13]: 4.31 nM; IC50 [7, 15]: 6.6 nM; IC50 [9, 17]: 8.96 nM; IC50 (A375 (human melanoma); [18]): 68.1 nM
2 | CC[C@@H](C(=O)[C@@H](C)[C@@H](O)[C@H](C)[C@@H]1O[C@@H]([C@@H](CC)C(=O)O)CC[C@@H]1C)[C@H]1O[C@]2(C=C[C@@H](NC(=S)Nc3cc(Cl)cc(Cl)c3)[C@]3(CC[C@@](C)([C@H]4CC[C@](O)(CC)[C@H](C)O4)O3)O2)[C@H](C)C[C@@H]1C [FLC-00380-1] | 178 | 1.1 | 6.44 | 29.6 | 6.6 | 28.9 | 85.7 | 48.2 | 4.0 | 0.2 | 483.3 | 0.4 | 191 | 31.6 | 19.9 | 9.6 | 36.6 | 1.0 | – | – | IC50 [3, 13]: 2.23 nM; IC50 [7, 15]: 6.05 nM; IC50 [9, 17]: 5.22 nM; IC50 (A375 (human melanoma); [18]): 195 nM
3 | CC[C@@H](C(=O)[C@@H](C)[C@@H](O)[C@H](C)[C@@H]1O[C@@H]([C@@H](CC)C(=O)O)CC[C@@H]1C)[C@H]1O[C@]2(C=C[C@@H](NC(=O)Nc3ccccc3C(F)(F)F)[C@]3(CC[C@@](C)([C@H]4CC[C@](O)(CC)[C@H](C)O4)O3)O2)[C@H](C)C[C@@H]1C [FLC-00381-1] | 138 | 1.2 | 36.4 | 4.4 | 63.8 | 2.5 | 11.9 | 69.6 | 2.3 | 0.5 | 21.7 | 7.34 | 159 | 3.2 | 62.4 | 2.5 | 3.4 | 0.8 | 13.4 | 50.4 | IC50 [9, 21]: 46.3 nM; IC50 (A375 (human melanoma); [22]): 189 nM
4 | CC[C@@H](C(=O)[C@@H](C)[C@@H](O)[C@H](C)[C@@H]1O[C@@H]([C@@H](CC)C(=O)O)CC[C@@H]1C)[C@H]1O[C@]2(C=C[C@@H](NC(=S)Nc3ccc(C)cc3)[C@]3(CC[C@@](C)([C@H]4CC[C@](O)(CC)[C@H](C)O4)O3)O2)[C@H](C)C[C@@H]1C [FLC-00382-1] | 61.1 | 0.8 | 9.84 | 5.2 | 5.15 | 10.0 | 61.4 | 36.5 | 1.4 | 0.4 | 157.5 | 0.33 | 51.6 | 13.8 | 5.15 | 10.0 | 13.2 | 1.2 | 0.84 | 3.75 | IC50 [9, 21]: 3.92 nM; IC50 (A375 (human melanoma); [22]): 44.2 nM
5 | CC[C@@H](C(=O)[C@@H](C)[C@@H](O)[C@H](C)[C@@H]1O[C@@H]([C@@H](CC)C(=O)O)CC[C@@H]1C)[C@H]1O[C@]2(C=C[C@@H](NC(=O)NCc3ccc(F)cc3)[C@]3(CC[C@@](C)([C@H]4CC[C@](O)(CC)[C@H](C)O4)O3)O2)[C@H](C)C[C@@H]1C [FLC-00383-1] | 244 | 0.7 | 30.6 | 5.7 | 20.3 | 8.6 | 27.2 | 47.7 | 3.6 | 0.7 | 39.0 | 4.45 | 173 | 6.7 | 3.35 | 51.7 | 7.0 | 0.8 | 6.38 | 26 | IC50 [9, 21]: 24.6 nM; IC50 (A375 (human melanoma); [22]): 205 nM
6 | CC[C@@H](C(=O)[C@@H](C)[C@@H](O)[C@H](C)[C@@H]1O[C@@H]([C@@H](CC)C(=O)O)CC[C@@H]1C)[C@H]1O[C@]2(C=C[C@@H](NC(=O)NC3CCCCC3)[C@]3(CC[C@@](C)([C@H]4CC[C@](O)(CC)[C@H](C)O4)O3)O2)[C@H](C)C[C@@H]1C [FLC-00384-1] | 141 | 0.7 | 19.7 | 5.3 | 21.1 | 5.0 | 25.9 | 62.6 | 1.7 | 0.3 | 80.0 | 1.31 | 105 | 10.5 | 28.2 | 3.7 | 3.8 | 0.9 | 4.04 | 10 | IC50 [9, 21]: 27.7 nM; IC50 (A375 (human melanoma); [22]): 120 nM
7 | CC[C@@H](C(=O)[C@@H](C)[C@@H](O)[C@H](C)[C@@H]1O[C@@H]([C@@H](CC)C(=O)O)CC[C@@H]1C)[C@H]1O[C@]2(C=C[C@@H](NC(=S)Nc3cccc(C(F)(F)F)c3)[C@]3(CC[C@@](C)([C@H]4CC[C@](O)(CC)[C@H](C)O4)O3)O2)[C@H](C)C[C@@H]1C [FLC-00386-1] | – | – | – | – | – | – | – | – | – | – | – | – | – | – | – | – | – | – | – | – | IC50 (Hs294T (human melanoma); Table 4, Hs294T human melanoma cells, read-out: IC50 (nM) Hs294T): 147 nM; IC50 ([2]; Table 4, SNU-16 human gastric cancer cells, read-out: IC50 (nM) SNU-16): 10.1 nM; IC50 ([4]; Table 4, MIA PaCa-2 human pancreatic cancer cells, read-out: IC50 (nM) MIA PaCa-2): 11.3 nM; IC50 ([8]; Table 4, PLC/PRF/5 human liver cancer cells, read-out: IC50 (nM) PLC/PRF/5): 10.2 nM; IC50 [10]: 51.3 nM
